# Test results published in ChEMBL document CHEMBL4033685, “C21-steroidal pregnane sapogenins and their derivatives as anti-inflammatory agents” (Bioorg Med Chem, 2017).
# Active and inactive are the calls of the source. The calls are words filed in the database; no cut-off is given here.
# What was measured:
# [1] = biological target: T1, Toll-like receptor 4 (Homo sapiens, UniProt O00206); test: Antagonist activity at TLR4 in human THP1 cells assessed as inhibition of LPS-stimulated IL-6 mRNA level at 10 uM after 16 hrs by RT-PCR method; format: cell-based
# T1 sequence (O00206 whole entry): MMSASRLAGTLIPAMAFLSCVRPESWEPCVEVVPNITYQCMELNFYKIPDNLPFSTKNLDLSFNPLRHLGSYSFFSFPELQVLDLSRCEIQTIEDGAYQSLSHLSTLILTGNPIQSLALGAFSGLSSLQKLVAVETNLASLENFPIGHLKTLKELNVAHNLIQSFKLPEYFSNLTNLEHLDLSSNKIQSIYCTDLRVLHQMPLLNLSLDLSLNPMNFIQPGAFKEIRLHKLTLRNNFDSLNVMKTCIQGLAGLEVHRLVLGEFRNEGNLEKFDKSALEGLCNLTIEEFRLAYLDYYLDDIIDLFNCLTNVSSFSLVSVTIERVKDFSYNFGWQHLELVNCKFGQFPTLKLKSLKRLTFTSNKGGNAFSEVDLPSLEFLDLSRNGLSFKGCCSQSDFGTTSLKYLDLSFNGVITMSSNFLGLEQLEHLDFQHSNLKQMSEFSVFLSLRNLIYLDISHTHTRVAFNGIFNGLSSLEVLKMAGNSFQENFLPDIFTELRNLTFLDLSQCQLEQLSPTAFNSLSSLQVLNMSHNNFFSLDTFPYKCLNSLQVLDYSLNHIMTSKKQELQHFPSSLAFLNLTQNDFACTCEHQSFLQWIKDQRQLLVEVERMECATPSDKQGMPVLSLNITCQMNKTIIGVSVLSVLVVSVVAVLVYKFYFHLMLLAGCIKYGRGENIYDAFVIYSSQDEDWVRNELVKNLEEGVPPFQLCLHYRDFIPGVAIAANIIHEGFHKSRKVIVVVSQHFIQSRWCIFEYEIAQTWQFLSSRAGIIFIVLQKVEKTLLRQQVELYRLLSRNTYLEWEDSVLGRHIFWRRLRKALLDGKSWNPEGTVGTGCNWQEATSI
# [2] = biological target: Transcription factor p65 (Homo sapiens) (UniProt Q04206); test: Inhibition of TNFalpha-stimulated NF-kB p65 phosphorylation (unknown origin) expressed in human AD293 cells at 10 uM after 3 hrs by Western blot analysis; format: cell-based
# Chain of Transcription factor p65 (Homo sapiens) (Q04206 whole entry): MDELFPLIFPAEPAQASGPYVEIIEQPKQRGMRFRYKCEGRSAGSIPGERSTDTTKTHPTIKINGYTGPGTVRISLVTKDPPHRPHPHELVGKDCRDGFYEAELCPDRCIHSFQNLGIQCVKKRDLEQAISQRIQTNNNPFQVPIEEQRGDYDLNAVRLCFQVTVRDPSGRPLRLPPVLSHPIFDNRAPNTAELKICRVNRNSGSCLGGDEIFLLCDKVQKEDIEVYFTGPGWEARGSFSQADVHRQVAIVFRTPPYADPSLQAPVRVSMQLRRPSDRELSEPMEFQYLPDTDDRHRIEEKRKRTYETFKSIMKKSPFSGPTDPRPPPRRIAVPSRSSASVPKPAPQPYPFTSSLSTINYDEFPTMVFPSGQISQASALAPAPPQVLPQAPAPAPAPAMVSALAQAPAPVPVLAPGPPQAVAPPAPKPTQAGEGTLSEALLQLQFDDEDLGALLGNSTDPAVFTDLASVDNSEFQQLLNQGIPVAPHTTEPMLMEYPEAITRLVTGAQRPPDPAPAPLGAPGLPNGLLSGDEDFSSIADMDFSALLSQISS
# [3] = biological target: Toll-like receptor 2 (Homo sapiens) (UniProt O60603); test: Antagonist activity at TLR2 in human THP1 cells assessed as inhibition of PGN-stimulated IL-6 mRNA level at 10 uM after 16 hrs by RT-PCR method; format: cell-based
# Chain of Toll-like receptor 2 (Homo sapiens) (O60603 whole entry): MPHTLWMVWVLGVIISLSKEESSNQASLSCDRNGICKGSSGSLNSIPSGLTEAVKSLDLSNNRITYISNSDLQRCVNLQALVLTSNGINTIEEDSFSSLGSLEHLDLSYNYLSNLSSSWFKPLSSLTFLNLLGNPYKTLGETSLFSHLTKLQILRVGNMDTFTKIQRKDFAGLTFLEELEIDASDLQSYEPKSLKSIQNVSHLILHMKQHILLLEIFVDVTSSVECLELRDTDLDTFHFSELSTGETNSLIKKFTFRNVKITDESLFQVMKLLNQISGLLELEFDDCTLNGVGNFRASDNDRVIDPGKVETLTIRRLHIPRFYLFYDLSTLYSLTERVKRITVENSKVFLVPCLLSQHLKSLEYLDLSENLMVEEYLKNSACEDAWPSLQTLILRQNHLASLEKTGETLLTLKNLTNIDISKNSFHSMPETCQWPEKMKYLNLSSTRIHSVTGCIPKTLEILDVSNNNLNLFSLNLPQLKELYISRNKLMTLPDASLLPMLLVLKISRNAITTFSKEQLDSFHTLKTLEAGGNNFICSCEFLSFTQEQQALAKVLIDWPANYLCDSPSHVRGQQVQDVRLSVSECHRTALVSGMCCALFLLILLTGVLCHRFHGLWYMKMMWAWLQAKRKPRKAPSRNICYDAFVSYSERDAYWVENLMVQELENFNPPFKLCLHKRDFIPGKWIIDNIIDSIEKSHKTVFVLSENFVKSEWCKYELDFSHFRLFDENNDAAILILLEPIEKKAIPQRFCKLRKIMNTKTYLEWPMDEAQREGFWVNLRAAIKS
# [4] = biological target: T1, Toll-like receptor 4; test: Antagonist activity at TLR4 in human THP1 cells assessed as inhibition of LPS-stimulated NF-kB non-canonical signaling pathway by measuring decrease in p100 phosphorylation at 10 uM after 3 hrs by Western blot analysis; format: cell-based
# [5] = biological target: T1, Toll-like receptor 4; test: Antagonist activity at TLR4 in human THP1 cells assessed as inhibition of LPS-stimulated RANTES mRNA level at 10 uM after 16 hrs by RT-PCR method; format: cell-based
# [6] = biological target: T1, Toll-like receptor 4; test: Antagonist activity at TLR4 in human THP1 cells assessed as inhibition of LPS-stimulated NF-kB canonical signaling pathway by measuring decrease in IkBalpha phosphorylation at 10 uM after 3 hrs by Western blot analysis; format: cell-based
# [7] = tested on: THP-1; test: Downregulation of IkBalpha protein expression in human THP1 cells at 10 uM after 3 hrs by Western blot analysis; format: functional, cell-based
# [8] = biological target: Toll-like receptor 2 (Homo sapiens) (UniProt O60603); test: Antagonist activity at TLR2 in human THP1 cells assessed as inhibition of PGN-stimulated TNFalpha level at 10 uM by bead based immunoassay; format: cell-based
# [9] = biological target: T1, Toll-like receptor 4; test: Antagonist activity at TLR4 in human THP1 cells assessed as inhibition of LPS-stimulated NFkappaB p65 protein expression at 10 uM after 3 hrs by Western blot analysis; format: cell-based
# [10] = biological target: Toll-like receptor 3 (Homo sapiens) (UniProt O15455); test: Antagonist activity at TLR3 in human THP1 cells assessed as inhibition of poly IC-stimulated RANTES mRNA level at 10 uM after 16 hrs by RT-PCR method; format: cell-based
# Chain of Toll-like receptor 3 (Homo sapiens) (O15455 whole entry): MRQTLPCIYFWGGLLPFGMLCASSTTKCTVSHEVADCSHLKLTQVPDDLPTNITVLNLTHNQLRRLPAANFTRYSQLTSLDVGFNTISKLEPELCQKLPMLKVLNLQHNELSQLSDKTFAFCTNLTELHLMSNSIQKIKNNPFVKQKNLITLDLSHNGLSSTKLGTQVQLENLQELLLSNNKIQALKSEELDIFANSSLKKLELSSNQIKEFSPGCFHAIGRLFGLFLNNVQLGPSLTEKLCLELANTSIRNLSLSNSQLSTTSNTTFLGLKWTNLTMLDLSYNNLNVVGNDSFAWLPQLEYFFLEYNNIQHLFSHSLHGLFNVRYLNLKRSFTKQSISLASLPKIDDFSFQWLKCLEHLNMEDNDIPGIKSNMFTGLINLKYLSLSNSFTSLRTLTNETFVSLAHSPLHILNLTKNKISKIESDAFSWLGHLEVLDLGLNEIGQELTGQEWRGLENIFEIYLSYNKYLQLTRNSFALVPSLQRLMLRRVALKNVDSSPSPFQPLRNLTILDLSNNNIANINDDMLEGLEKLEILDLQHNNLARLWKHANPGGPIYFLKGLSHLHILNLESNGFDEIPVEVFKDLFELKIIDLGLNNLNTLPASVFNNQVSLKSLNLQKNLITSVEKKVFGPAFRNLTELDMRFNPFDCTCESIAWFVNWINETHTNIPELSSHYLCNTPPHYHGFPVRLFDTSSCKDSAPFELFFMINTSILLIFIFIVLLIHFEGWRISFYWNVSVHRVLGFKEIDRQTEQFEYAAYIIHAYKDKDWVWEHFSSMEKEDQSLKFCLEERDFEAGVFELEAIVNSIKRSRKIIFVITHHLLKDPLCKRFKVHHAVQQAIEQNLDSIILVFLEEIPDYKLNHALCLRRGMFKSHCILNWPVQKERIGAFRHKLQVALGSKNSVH
# [11] = biological target: Toll-like receptor 2 (Homo sapiens) (UniProt O60603); test: Antagonist activity at TLR2 in human THP1 cells assessed as inhibition of PGN-stimulated IL-1beta level at 10 uM by bead based immunoassay; format: cell-based
# [12] = biological target: Toll-like receptor 2 (Homo sapiens) (UniProt O60603); test: Antagonist activity at TLR2 in human THP1 cells assessed as inhibition of PGN-stimulated RANTES mRNA level at 10 uM after 16 hrs by RT-PCR method; format: cell-based
# [13] = tested on: THP-1; test: Downregulation of IkBalpha protein expression in LPS-stimulated human THP1 cells at 10 uM after 3 hrs by Western blot analysis; format: functional, cell-based
# [14] = biological target: Toll-like receptor 3 (Homo sapiens) (UniProt O15455); test: Antagonist activity at TLR3 in human THP1 cells assessed as inhibition of poly IC-stimulated IL-6 mRNA level at 10 uM after 16 hrs by RT-PCR method; format: cell-based
# [15] = organism: Homo sapiens; test: Inhibition of TNFalpha-stimulated NF-kB signaling pathway (unknown origin) expressed in human AD293 cells after 4 hrs by luciferase reporter gene assay; format: cell-based
# [16] = biological target: Transcription factor p65 (Homo sapiens) (UniProt Q04206); test: Upregulation of NF-kB p65 phosphorylation (unknown origin) expressed in human AD293 cells at 10 uM after 3 hrs by Western blot analysis; format: cell-based
# [17] = biological target: Toll-like receptor 2 (Homo sapiens) (UniProt O60603); test: Antagonist activity at TLR2 in human THP1 cells assessed as inhibition of PGN-stimulated IL-6 mRNA level after 16 hrs by RT-PCR method; format: cell-based
# [18] = biological target: Toll-like receptor 3 (Homo sapiens) (UniProt O15455); test: Antagonist activity at TLR3 in human THP1 cells assessed as inhibition of poly IC-stimulated RANTES mRNA level after 16 hrs by RT-PCR method; format: cell-based
# [19] = biological target: T1, Toll-like receptor 4; test: Antagonist activity at TLR4 in human THP1 cells assessed as inhibition of LPS-stimulated RANTES mRNA level after 16 hrs by RT-PCR method; format: cell-based
# [20] = biological target: Toll-like receptor 3 (Homo sapiens) (UniProt O15455); test: Antagonist activity at TLR3 in human THP1 cells assessed as inhibition of poly IC-stimulated IL-6 mRNA level after 16 hrs by RT-PCR method; format: cell-based
# [21] = biological target: Toll-like receptor 2 (Homo sapiens) (UniProt O60603); test: Antagonist activity at TLR2 in human THP1 cells assessed as inhibition of PGN-stimulated RANTES mRNA level after 16 hrs by RT-PCR method; format: cell-based
# [22] = biological target: T1, Toll-like receptor 4; test: Antagonist activity at TLR4 in human THP1 cells assessed as inhibition of LPS-stimulated IL-6 mRNA level after 16 hrs by RT-PCR method; format: cell-based
compound,measurement,setting,value
CC(=O)[C@]1(O)CC[C@@]2(O)[C@]1(C)[C@H](OC(=O)c1ccc(O)cc1)C[C@@H]1[C@@]3(C)CC[C@H](OC(=O)CCl)CC3=CC[C@]12O,inhibition,[1],Active
same,inhibition,[2],inactive
same,inhibition,[3],Active
same,inhibition,[4],inactive
same,inhibition,[5],Active
same,inhibition,[6],inactive
same,Activity,[7],Active
same,inhibition,[8],Active
same,inhibition,[9],Active
same,inhibition,[10],Active
same,inhibition,[11],Active
same,inhibition,[12],Active
same,Activity,[13],Active
same,inhibition,[14],Active
same,EC10,[15],> 10 µM
same,Activity,[16],Active
COc1ccc(/C=C/C(=O)O[C@H]2CC[C@@]3(C)C(=CC[C@]4(O)[C@@H]3C[C@@H](OC(=O)/C=C(\C)C(C)C)[C@@]3(C)[C@]4(O)CC[C@@]3(O)C(C)=O)C2)cc1,inhibition,[17],Dose-dependent effect
same,inhibition,[2],inactive
same,inhibition,[4],inactive
same,inhibition,[18],Dose-dependent effect
same,inhibition,[8],Active
same,inhibition,[11],Active
same,inhibition,[19],Dose-dependent effect
same,inhibition,[20],Dose-dependent effect
same,EC10,[15],> 10 µM
same,inhibition,[21],Dose-dependent effect
same,inhibition,[22],Dose-dependent effect
